Test results as given in patent US9018383B2, “Acylamino-substituted cyclic carboxylic acid derivatives and their use as pharmaceuticals” (Sanofi, priority 2009, dated 2015).

Biological target: human Edg-2 receptor (Homo sapiens, UniProt Q92633)
Test: Determination of Edg-2 receptor inhibition by FLIPR measurements (LPA-mediated calcium liberation)
Assay type: cell-based
Conditions: CHO cells overexpressing human Edg-2 receptor, LPA 100 nM, fluo-4 calcium fluorescence; read-out: Inhibitory concentrations IC50 for inhibition of the Edg-2 receptor
Procedure: A) Determination of Edg-2 Receptor Inhibition by Fluorescence Imaging Plate Reader (FLIPR) Measurements
The inhibition of the Edg-2 receptor (LPA1 receptor) by the compounds of the invention was quantified by the inhibitory effect on the LPA-mediated calcium liberation in a cell-based calcium fluorescence assay by use of Chinese hamster ovarian (CHO) cells in which the human Edg-2 receptor was stably overexpressed (Flp-In system, Invitrogen). […] Changes in intracellular calcium were determined by fluorescence measurement with the calcium-sensitive dye fluo-4 (Invitrogen) in a fluorescence imaging plate reader (FLIPR, […]).
CHO cells stably overexpressing the human Edg-2 receptor were seeded (40.000 per well) in black clear-bottomed poly-D-lysine-coated 96 well plates (Becton Dickinson, Biocoat cellware) approximately 18-24 h prior to the experiments. Cells were grown in an incubator at 37° C., 5% carbon dioxide and 95% humidity in cell culture media based on F-12 glutamax media (Gibco, #31765) supplemented with 1% (vol/vol) penicilline/streptomycine (PAN, #P06-07100), 10% (vol/vol) fetal calf serum (FCS, PAA, #A15-151) and hygromycin B (Invitrogen, #10687-010) 300 mg/l (final concentrations).
Prior to the FLIPR experiment, cells were loaded with fluo-4 acetoxymethyl ester (fluo-4 AM, Invitrogen, #F14202) for 60 min in an incubator at 37° C., 5% carbon dioxide and 95% humidity in dye-loading buffer consisting of Hanks' Balanced Salt Solution (HBSS, Invitrogen, #14065049) supplemented with fluo-4 AM at 2 μM (all data given for final concentration), Pluronic® F-127 0.05% (vol/vol) (Invitrogen, #P-3000 MP), HEPES 20 mM (Gibco, #15630), probenecid 2.5 mM (Sigma, #P-8761) and bovine serum albumin 0.05% (BSA, Sigma, #A-6003), adjusted to pH 7.5 with sodium hydroxide. During cell loading, fluo-4 AM is cleaved by intracellular esterase resulting in trapping of the dye fluo-4 within the cells. Loading was terminated by washing of the cells in a cell washer (Tecan Power washer) three times with the buffer specified afore but without fluo-4 AM and BSA. This latter buffer was also used as the buffer in the subsequent cell fluorescence measurements.
The dye-loaded and washed cells were pre-incubated for approximately 5 min with various concentrations of the test compound added as a solution in DMSO (0.3% vol/vol maximum final concentration of DMSO), or with DMSO in the respective concentration only (positive control). Subsequent addition of LPA (18:1, 1-oleoyl-sn-glycerol 3-phosphate; 100 nM final concentration) leads to liberation of intracellular calcium from internal stores resulting in a large transient increase of the fluo-4 fluorescence signal which was monitored over approximately 3 min. The percent inhibition caused by the test compound was determined from the maximum fluorescence response after LPA addition to cells pre-incubated with the compound as compared to the maximum fluorescence response after LPA addition to cells pre-incubated with DMSO only. All fluorescence values were corrected for the baseline fluorescence values obtained with cells which were pre-incubated with DMSO only and were not treated with LPA (baseline control). All measurements were performed in triplicate. From the percent inhibitions the inhibitory concentration IC50 was determined.

human Edg-2 receptor, sequence (Q92633 whole entry): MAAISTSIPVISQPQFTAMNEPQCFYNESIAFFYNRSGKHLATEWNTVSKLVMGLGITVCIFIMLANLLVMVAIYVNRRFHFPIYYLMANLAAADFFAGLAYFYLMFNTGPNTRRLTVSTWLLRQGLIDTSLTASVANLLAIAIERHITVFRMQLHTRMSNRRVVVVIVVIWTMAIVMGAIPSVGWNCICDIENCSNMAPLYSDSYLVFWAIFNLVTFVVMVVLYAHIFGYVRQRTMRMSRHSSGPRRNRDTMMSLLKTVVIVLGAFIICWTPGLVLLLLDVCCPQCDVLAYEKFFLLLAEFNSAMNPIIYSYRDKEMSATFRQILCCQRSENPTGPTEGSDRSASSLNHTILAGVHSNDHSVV

Row | IC50 | SMILES
1 | 1000 to 30000 nM | COc1ccc(C(=O)NC2(C(=O)O)CCCC2C)cc1OCCc1cccc(C)c1 (centres unmarked) [Example 49]
2 | < 100 nM | CCC1CCC(NC(=O)c2ccc(OC)c(OCCc3cccc(C)c3)c2)(C(=O)O)CC1 (centres unmarked) [Example 50]
3 | < 100 nM | COc1ccc(C(=O)NC2(C(=O)O)CCCC3(CC2)OCCO3)cc1OCCc1cccc(C)c1 (centres unmarked) [Example 51, 8-[4-Methoxy-3-(2-m-tolyl-ethoxy)-benzoylamino]-1,4-dioxa-spiro[4.6]undecane-8-carboxylic acid]
4 | 1000 to 30000 nM | COc1ccc(C(=O)NC2(C(=O)O)CCCC(=O)CC2)cc1OCCc1cccc(C)c1 (centres unmarked) [Example 52, 1-[4-Methoxy-3-(2-m-tolyl-ethoxy)-benzoylamino]-4-oxo-cycloheptanecarboxylic acid]
5 | 100 to 1000 nM | COc1ccc(C(=O)NC2(C(=O)O)CCCC(O)CC2)cc1OCCc1cccc(C)c1 (centres unmarked) [Example 53, 4-Hydroxy-1-[4-methoxy-3-(2-m-tolyl-ethoxy)-benzoylamino]-cycloheptanecarboxylic acid]
6 | < 100 nM | COc1ccc(C(=O)NC2(C(=O)O)CCC3(CC2)OCCO3)cc1OCCc1cccc(C)c1 [Example 54, 8-[4-Methoxy-3-(2-m-tolyl-ethoxy)-benzoylamino]-1,4-dioxa-spiro[4.5]decane-8-carboxylic acid]
7 | 100 to 1000 nM | COc1ccc(C(=O)NC2(C(=O)O)CCC(=O)CC2)cc1OCCc1cccc(C)c1 [Example 55, 1-[4-Methoxy-3-(2-m-tolyl-ethoxy)-benzoylamino]-4-oxo-cyclohexanecarboxylic acid]
8 | < 100 nM | C=C1CCC(NC(=O)c2ccc(OC)c(OCCc3cccc(C)c3)c2)(C(=O)O)CC1 [Example 56, 1-[4-Methoxy-3-(2-m-tolyl-ethoxy)-benzoylamino]-4-methylene-cyclohexanecarboxylic acid]
9 | < 100 nM | COc1ccc(C(=O)NC2(C(=O)O)CCC3(CC3)CC2)cc1OCCc1cccc(C)c1 [Example 57, 6-[4-Methoxy-3-(2-m-tolyl-ethoxy)-benzoylamino]-spiro[2.5]octane-6-carboxylic acid]
10 | 1000 to 30000 nM | COc1ccc(C(=O)NC2(C(=O)O)CCC(CO)CC2)cc1OCCc1cccc(C)c1 (centres unmarked) [Example 58, 4-Hydroxymethyl-1-[4-methoxy-3-(2-m-tolyl-ethoxy)-benzoylamino]-cyclohexanecarboxylic acid]
11 | < 100 nM | COc1ccc(C(=O)NC2(C(=O)O)CCC(CF)CC2)cc1OCCc1cccc(C)c1 (centres unmarked) [Example 59, 4-Fluoromethyl-1-[4-methoxy-3-(2-m-tolyl-ethoxy)-benzoylamino]-cyclohexanecarboxylic acid]
12 | 100 to 1000 nM | CC(=O)c1ccc(C(=O)NC2(C(=O)O)CCCCCC2)cc1OCCc1cccc(C)c1 [Example 60, 1-[4-Acetyl-3-(2-m-tolyl-ethoxy)-benzoylamino]-cycloheptanecarboxylic acid]
13 | 100 to 1000 nM | Cc1cccc(CCOc2cc(C(=O)NC3(C(=O)O)CCCCCC3)ccc2C(C)O)c1 (centres unmarked) [Example 61, 1-[4-(1-Hydroxy-ethyl)-3-(2-m-tolyl-ethoxy)-benzoylamino]-cycloheptanecarboxylic acid]
14 | < 100 nM | CCc1ccc(C(=O)NC2(C(=O)O)CCCCCC2)cc1OCCc1cccc(C)c1 [Example 62, 1-[4-Ethyl-3-(2-m-tolyl-ethoxy)-benzoylamino]-cycloheptanecarboxylic acid]
15 | < 100 nM | Cc1cccc(CCOc2cc(C(=O)NC3(C(=O)O)CCCCCC3)ccc2C(C)F)c1 (centres unmarked) [Example 63, 1-[4-(1-Fluoro-ethyl)-3-(2-m-tolyl-ethoxy)-benzoylamino]-cycloheptanecarboxylic acid]
16 | 100 to 1000 nM | Cc1cccc(CCOc2cc(C(=O)NC3(C(=O)O)CCCCCC3)ccc2Cl)c1 [Example 64, 1-[4-Chloro-3-(2-m-tolyl-ethoxy)-benzoylamino]-cycloheptanecarboxylic acid]

Row | IC50 | SMILES
17 | < 100 nM | Cc1cccc(CCOc2cc(C(=O)NC3(C(=O)O)CCCCCC3)ccc2Br)c1 [Example 65, 1-[4-Bromo-3-(2-m-tolyl-ethoxy)-benzoylamino]-cycloheptanecarboxylic acid]
18 | < 100 nM | COc1ccc(C(=O)NC2(C(=O)O)CCCC2OC)cc1OCCc1cccc(C)c1 (centres unmarked) [Example 68, 2-Methoxy-1-[4-methoxy-3-(2-m-tolyl-ethoxy)-benzoylamino]-cyclopentanecarboxylic acid]
19 | 100 to 1000 nM | COc1ccc(C(=O)NC2(C(=O)O)CCCCCC2)c(F)c1OCCc1cccc(C)c1 [Example 69, 1-[2-Fluoro-4-methoxy-3-(2-m-tolyl-ethoxy)-benzoylamino]-cycloheptanecarboxylic acid]
20 | < 100 nM | COc1c(F)cc(C(=O)NC2(C(=O)O)CCCCCC2)cc1OCCc1cccc(C)c1 [Example 70, 1-[3-Fluoro-4-methoxy-5-(2-m-tolyl-ethoxy)-benzoylamino]-cycloheptanecarboxylic acid]
21 | < 100 nM | COc1ccc(C(=O)NC2(C(=O)O)CCCCCC2)cc1OCC(F)(F)c1ccccc1 [Example 71, 1-[3-(2,2-Difluoro-2-phenyl-ethoxy)-4-methoxy-benzoylamino]-cycloheptanecarboxylic acid]
22 | < 100 nM | COc1ccc(C(=O)NC2(C(=O)O)CCCCCC2)cc1CCCc1cccc(C)c1 [Example 72, 1-[4-Methoxy-3-(3-m-tolyl-propyl)-benzoylamino]-cycloheptanecarboxylic acid]
23 | 1000 to 30000 nM | COc1ccc(C(=O)NC2(C(=O)O)CCCCCC2)cc1OCC(O)c1cccc(C)c1 (centres unmarked) [Example 73, 1-[3-(2-Hydroxy-2-m-tolyl-ethoxy)-4-methoxy-benzoylamino]-cycloheptanecarboxylic acid]
24 | < 100 nM | COc1ccc(C(=O)NC2(C(=O)O)CCC=CCC2)cc1OCCc1cccc(C)c1 [Example 74, 1-[4-Methoxy-3-(2-m-tolyl-ethoxy)-benzoylamino]-cyclohept-4-enecarboxylic acid]
25 | < 100 nM | COc1ccc(C(=O)NC2(C(=O)O)CCC3CC3CC2)cc1OCCc1cccc(C)c1 (centres unmarked) [Example 75]
26 | < 100 nM | COc1ccc(C(=O)NC2(C(=O)O)CC(C)C2)cc1OCCc1cccc(C)c1 (centres unmarked) [Example 76, 1-[4-Methoxy-3-(2-m-tolyl-ethoxy)-benzoylamino]-3-methyl-cyclobutanecarboxylic acid]
27 | < 100 nM | COc1ncc(C(=O)NC2(C(=O)O)CCCCCC2)cc1OCCc1cccc(C)c1 [Example 77, 1-{[6-Methoxy-5-(2-m-tolyl-ethoxy)-pyridine-3-carbonyl]-amino}-cycloheptanecarboxylic acid]
28 | 100 to 1000 nM | COc1ncc(C(=O)NC2(C(=O)O)CCCCCCC2)cc1OCCc1cccc(C)c1 [Example 78, 1-{[6-Methoxy-5-(2-m-tolyl-ethoxy)-pyridine-3-carbonyl]-amino}-cyclooctanecarboxylic acid]
29 | < 100 nM | COc1ncc(C(=O)N[C@]2(C(=O)O)CC[C@H](C)CC2)cc1OCCc1cccc(C)c1 [Example 79, cis-1-{[6-Methoxy-5-(2-m-tolyl-ethoxy)-pyridine-3-carbonyl]-amino}-4-methyl-cyclohexanecarboxylic acid]
30 | < 100 nM | COc1ncc(C(=O)N[C@]2(C(=O)O)CC[C@@H](C)CC2)cc1OCCc1cccc(C)c1 [Example 80, trans-1-{[6-Methoxy-5-(2-m-tolyl-ethoxy)-pyridine-3-carbonyl]-amino}-4-methyl-cyclohexanecarboxylic acid]
31 | < 100 nM | COc1ncc(C(=O)N[C@]2(C(=O)O)CC[C@@H](C)CC2)cc1OCCc1cc(Cl)ccc1F [Example 81, trans-1-({5-[2-(5-Chloro-2-fluoro-phenyl)-ethoxy]-6-methoxy-pyridine-3-carbonyl}-amino)-4-methyl-cyclohexanecarboxylic acid]
32 | < 100 nM | COc1ncc(C(=O)N[C@]2(C(=O)O)CC[C@@H](C)CC2)cc1OCCc1cc(OC(F)(F)F)ccc1F [Example 82, trans-1-({5-[2-(2-Fluoro-5-trifluoromethoxy-phenyl)-ethoxy]-6-methoxy-pyridine-3-carbonyl}-amino)-4-methyl-cyclohexanecarboxylic acid]
